One assay relates to S. aureus Newman. Put plainly: Minimal inhibitory concentration (MIC), double-dilution in broth, OD600. The assay is classed as cell-based, Staphylococcus aureus Newman. The conditions noted are these: unit assumed. An outline of the steps: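 Twofold broth dilution series of compound from a DMSO stock, against S. aureus Newman from a 1:100-diluted overnight culture. Plates were incubated for 24 hours, then read at OD600. The MIC is the lowest concentration showing no growth.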

For a further assay, the system named is NRK-52E. The assay is described as follows: Cell toxicity, Alamar blue assay, 24 hours exposure. The conditions noted are these: Rattus norvegicus, read-out: IC50 NRK-52E (50 mg/mL stock). The assay is classed as cell-based. The gist of the method: (§1)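 Alamar blue (resazurin→resorufin) viability in NRK-52E and HEK293 cells after 24 h exposure to HKI compounds at 0.39–500 µg/mL in serum-free medium. Compounds were removed, dye added for 45 min, fluorescence read. Mostly single measurements.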
A general note: Resazurin is reduced to fluorescent resorufin, in cell work by metabolically active cells.

The subject of another assay is HEK293. Described as above. Format: cell-based. The conditions noted are these: Homo sapiens. An outline of the steps: as §1
A further assay has as its system E. faecium Van A. Put plainly: Minimal inhibitory concentration (MIC), double-dilution in broth, OD600. The assay is classed as cell-based, Enterococcus faecium. The conditions noted are these: unit assumed. An outline of the steps: (§2)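 Broth double-dilution, top conc. 50 µg/mL, 2-fold steps; overnight culture diluted 100x as inoculum; 24 h incubation; OD600 read; MIC = lowest conc., no growth. M. marinum: Middlebrook 7H9, 3 days, 30 °C.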

In a further assay the test system is E. coli JW5503. The assay is classed as cell-based, Escherichia coli. The conditions noted are these: unit assumed. The gist of the method: as §2
Another assay concerns S. suis. Put plainly: Minimal inhibitory concentration (MIC), double-dilution in broth, OD600. Format: cell-based, Streptococcus suis. The settings on record: unit assumed. The gist of the method: as §2
The test system of a further assay is M. marinum. The assay is described as follows: Minimal inhibitory concentration (MIC), Middlebrook 7H9 broth, 3 days at 30 °C. The assay is classed as cell-based, Mycobacterium marinum. The conditions noted are these: unit assumed. The gist of the method: as §2
Another assay deals with P. multocida. Put plainly: Minimal inhibitory concentration (MIC), double-dilution in broth, OD600. The assay is classed as cell-based, Pasteurella multocida. The settings on record: unit assumed. The gist of the method: as §2
Where [1] appears, read: HEK293, read-out: IC50 HEK293 (5 mg/mL stock).

Values after ≈ are worked out from the molar mass of the structure shown. Like-named read-outs stand apart in the source and are kept apart here.

In the assay with S. aureus Newman, `Oc1cc(OCc2ccccc2Cl)ccc1-c1n[nH]c(C(F)(F)F)c1-c1ccc(Cl)cc1` [Sep-25, 5-(2-chlorobenzyl)oxy-2-[4-(4-chlorophenyl)-5-(trifluoromethyl)-1∼{H}-pyrazol-3-yl]pheno] displayed an MIC S. aureus Newman of 3.13 µg/mL (≈ 6.53 µM). The IC50 is 17.3 µg/mL (≈ 36 µM) with NRK-52E; 19.3 µg/mL (≈ 40.2 µM) with HEK293 (setting [1]); 18.1 µg/mL (≈ 37.7 µM) in the assay with HEK293 (HEK293, read-out: IC50 HEK293 (50 mg/mL stock)). Besides, the MIC E. faecium Van A in the assay on E. faecium Van A amounted to 12.5 µg/mL (≈ 26.1 µM). Besides, in the assay on E. coli JW5503, the MIC E. coli JW5503 is > 50 µg/mL. Also, the MIC S. suis against S. suis amounted to 12.5 µg/mL (≈ 26.1 µM). Besides, in the assay with M. marinum, the MIC M. marinum was 50 µg/mL (≈ 104 µM). The MIC P. multocida against P. multocida was > 50 µg/mL.

`C=C(C)COc1ccc(-c2[nH]nc(C(F)(F)F)c2-c2ccccc2)c(O)c1` [Sep-9, 5-(2-methylallyloxy)-2-[4-phenyl-5-(trifluoromethyl)-1∼{H}-pyrazol-3-yl]phenol] came in with an MIC S. aureus Newman against S. aureus Newman of 6.25 µg/mL (≈ 16.7 µM). Moreover, the IC50 was ~10.9 µg/mL (≈ 29 µM) in the assay with NRK-52E and 16.1 µg/mL (≈ 43.1 µM) with HEK293 (setting [1]). In the assay with E. faecium Van A, the MIC E. faecium Van A is 0.78 µg/mL (≈ 2.08 µM). Also, the MIC E. coli JW5503 against E. coli JW5503 is 6.25 µg/mL (≈ 16.7 µM). In the assay on S. suis, this compound returned an MIC S. suis of 25 µg/mL (≈ 66.8 µM). Further, the MIC M. marinum against M. marinum is > 50 µg/mL. The MIC P. multocida against P. multocida came out at 50 µg/mL (≈ 134 µM).

The record behind these values is EP3827825A1, “USE OF 3, 4-DIARYLPYRAZOLES AS ANTIBACTERIAL AGENTS” (Wageningen Universiteit, priority 2019, dated 2021).
